The results in this text go back to PubChem BioAssay AID1996.

Converted amounts (≈) assume the structure as drawn.

For the data set the following is noted: buffer; pH 7.4; 200.0 µM.
For `COc1ccc2c(c1)[nH]c1c(N3CCSCC3)ncnc12`, the kinetic solubility was determined as 11.5 µg/mL (≈ 38.3 µM).
As to `Cc1ccc(-n2c(O)c(C=NCc3ccco3)c(=O)[nH]c2=S)cc1C`, the solubility (kinetic) worked out at 11.1 µg/mL (≈ 31.2 µM).
The compound `Cc1ccc(NC(=O)COC(=O)[C@@H]2CC(O)CN2S(=O)(=O)c2ccc3c(c2)OCCO3)cc1` (stereo not given in full) yielded a kinetic solubility of more than 71.5 µg/mL.
`O=C(NCCN1CCCCC1)Nc1ccc(Cl)cc1` showed a solubility (kinetic) of more than 42.3 µg/mL.
In turn, `O=[N+]([O-])c1ccc(CNc2ccc(Cl)cc2)s1` registered a kinetic solubility of 6.5 µg/mL (≈ 24.2 µM).
In turn, `CN1CCC(N(C)C(=O)CNC(=O)c2ccc(C(C)(C)C)cc2)CC1` returned a solubility (kinetic) of 39.5 µg/mL (≈ 114 µM).
The result for `Cc1ccc(C(=O)OCC(=O)NC(C)C2CC3CCC2C3)cc1N` (stereo not given) reads more than 49.6 µg/mL; that for `COc1ccc(CCNC2=NCCS2)cc1OC`, 29.7 µg/mL (≈ 112 µM); that for `O=C(CN1C(=O)CCSc2ccccc21)NC1CCCCC1`, 43.3 µg/mL (≈ 136 µM).
On to `O=C1NCC(NC(=O)C(F)(F)F)c2cc3c(cc21)OCO3` (stereo not given), for which the solubility (kinetic) is more than 45.3 µg/mL.
As to `COC(=O)C1CC(=O)N(Cc2ccccc2)C1` (stereo not given), the solubility (kinetic) is more than 35 µg/mL.
The figure for `COC(=O)C(C(=O)OC)c1ncccc1[N+](=O)[O-]` is more than 38.1 µg/mL; for `CNC(=O)COC(=O)c1ccccc1Nc1ccccc1` it is 2.6 µg/mL (≈ 9.14 µM); for `CC1CC(C)CN(C(=O)CNS(=O)(=O)c2cccs2)C1` (stereo not given) it is 17.6 µg/mL (≈ 55.6 µM).
As to `CC(C)c1ccc(NC(=O)C2C3C=CC(CC3)C2C(=O)O)cc1` (stereo not given), the solubility (kinetic) is 3.2 µg/mL (≈ 10.2 µM).
For the compound `Cc1oncc1-c1csc(-c2ccccc2Cl)n1`, the kinetic solubility is 0.6 µg/mL (≈ 2.17 µM).
Take `COc1ccc2cc(C(=O)NCc3ccccc3)c(=O)oc2c1`: the kinetic solubility is less than 0.7 µg/mL.
For `Cn1c(N)c(C(=O)COC(=O)c2ccccc2C(F)(F)F)c(=O)n(C)c1=O`, the kinetic solubility is 6.3 µg/mL (≈ 16.4 µM).
Regarding `Cn1c(SCC(=O)Nc2ccc3c(c2)OCCO3)nnc1-c1ccncc1`, the solubility (kinetic) was more than 57.5 µg/mL.
For `CC1CC(NC(=O)/C(C#N)=C/c2ccc[nH]2)CC(C)(C)C1` (stereo not given), the kinetic solubility was less than 0.2 µg/mL.
Consider `Nc1cccnc1Sc1ccccc1`, for which the solubility (kinetic) stood at 28 µg/mL (≈ 138 µM).
As to `Cl.Nc1nc(N)c2[nH]c(-c3ccccc3)nc2n1`, the solubility (kinetic) was more than 39.4 µg/mL.
Regarding `CC1(C(=O)N2CCOCC2)CCCCC1`, the kinetic solubility amounted to 26.3 µg/mL (≈ 124 µM).
The compound `CC(C)CC(=O)Nc1cccc(-c2nc3ccccc3[nH]2)c1` yielded a kinetic solubility of 32.2 µg/mL (≈ 110 µM).
For `O=C(NC1CCC(O)CC1)c1cc(Cl)c2c(c1)OCCO2` (stereo not given), the kinetic solubility came to 35.6 µg/mL (≈ 114 µM).
For the compound `CCc1cc2cc(C)cc(C)c2[nH]c1=S`, the solubility (kinetic) amounted to 3.9 µg/mL (≈ 17.9 µM).
Consider `Cc1ccc(C23CCC(=O)N2C(C(=O)O)CS3)c(C)c1` (stereo not given), for which the kinetic solubility was more than 43.7 µg/mL.
For the compound `O=C(Nc1cccnc1)Nc1cccc(F)c1`, the kinetic solubility is more than 34.7 µg/mL.
Take `O=C(COC(=O)c1ccc([N+](=O)[O-])o1)Nc1ccc2c(c1)OCO2`: the solubility (kinetic) was 16.9 µg/mL (≈ 50.6 µM).
On to `CCOC(=O)C1=C(C)NC(C)=C(C(=O)OCC)C1C(=O)OCC(=O)NCc1ccccc1OC`, for which the kinetic solubility was more than 71.2 µg/mL.
`O=C(COc1ccc(S(=O)(=O)N2CCOCC2)cc1)Nc1ccc(Br)cc1` displayed a solubility (kinetic) of 5.4 µg/mL (≈ 11.9 µM).
As to `Cc1cc(C(=O)Nc2cc(C(C)(C)C)on2)c(C)o1`, the solubility (kinetic) amounted to 3.8 µg/mL (≈ 14.5 µM).
Compound `Cc1cccc(/C(N)=N/OC(=O)c2ccoc2C)c1` had a kinetic solubility of 38 µg/mL (≈ 147 µM).
The result for `CCOn1c(=O)c(-c2cc(OC)ccc2OC)[n+]([O-])c2ccccc21` reads more than 51.4 µg/mL; that for `Cc1cc(OC(=O)c2ccc(C(C)(C)C)cc2)c([N+](=O)[O-])c(=O)[nH]1`, 46.4 µg/mL (≈ 140 µM); that for `COc1cc2c(cc1OC)CN(CC(O)c1ccccc1)CC2` (stereo not given), 44.3 µg/mL (≈ 141 µM).
For the compound `O=C(OCC(=O)N1CCCC1)c1c(Cl)ccc(Cl)c1Cl`, the kinetic solubility was determined as 39 µg/mL (≈ 116 µM).
For `CCOC(=O)/C=C(C)\C=C\c1c[nH]c2ccccc12`, the solubility (kinetic) amounted to 12.5 µg/mL (≈ 49 µM).
The result for `CC(C)(C)N(Cc1ccccc1)C(=O)CN1C(=O)c2ccccc2C1=O` reads 0.8 µg/mL (≈ 2.28 µM).
Turning to `Cc1cc(O)c(Sc2ccc(Cl)cc2)c(=O)[nH]1`, the kinetic solubility was more than 40.2 µg/mL.

What is called kinetic solubility is solubility judged after dilution from a stock solution rather than from solid.
